Reference: patent US6410508B1 (priority 1998, dated 2002)

Experiments:
receptors for GIP = conditions: pancreatic β cells; depending on the cell system and the source of GIP (human versus porcine); read-out: binding affinity; cited from earlier work
[1] = system: fetal radius and ulna bone explants; test: Fetal long bone resorption assay (45Ca release); assay type: cell-based, rat; conditions: 10 nM PTH, GIP 10 nM
Protocol: Pregnant Sprague-Dawley rats (Charles River Laboratories, Kingston, N.Y.) were injected with 200 μCi^45Ca on day 18 of gestation and killed one day later to remove the labeled fetal radius and ulna. […] Medium was changed every 3 days and ^45Ca was measured after every culture period. Resorption is expressed as the ratio of ^45Ca released from treated versus control bones.

SaOS2 cells [2] = test: Intracellular calcium measurement with fura-2 in SaOS2 cells; assay type: cell-based, human; conditions: fura-2, dose-dependent response
Protocol: (§1) Peak increases in intracellular calcium from four different experiments were calculated. Data is expressed as mean±SEM; *=p<0.001; **=p<0.001. […] Cellular cAMP was measured with a commercially available radioimmunoassay (Biomedical Technologies, Stoughton, Mass.). Data is expressed as mean+SEM; **=p<0.001.
Intracellular calcium measurements were made as described by Gasalla-Herraiz, et al., Biochem Biophys Res Commun 214:373-88 (1995). Briefly, SaOS2 cells were grown in 75 cm^2 flasks and removed by incubating in PBS/EGTA. Cells were loaded with the calcium sensitive dye fara-2AM in KRB, for 45 min at room temperature. The cells were then centrifuged and resuspended in KRB. After approximately 30 minutes at room temperature, to allow esterase cleavage of fura-2AM to fura-2, the cells were again centrifuged and placed in a cuvette in a dual-wavelength spectrophotometer (Photon Technologies International, South Brunswick, N.J.). Fluorescence was then measured using excitation wavelengths of 340 and 380 nm and an emission wavelength of 510 nm. Autoflourescence was measured in unloaded cells and this value subtracted from all the measurements.

SaOS2 cells [3] = test: Collagen type I mRNA expression by northern blot in SaOS2 cells; assay type: cell-based, human
Protocol: After 24 hourg, total RNA was extracted and probed with a collagen type I specific probe. The autoradiographs were then scanned and the densitometry quantified on a Sun Sparc station using Bioimage software. (n=4, *=p<0.001). […] The densitometry of four different experiments was summed and is expressed as a bar graph; *=p<0.001 vs control, as a function of time, in FIG. 2A.
After 24 hours, total RNA was extracted from cells using Trizol. RNA (20 μg) was electrophoresed on a 1.2% agarose-formaldehyde gel and transferred to a nylon filter. The blots were hybridized overnight at 65° C. with a ^32P-labeled probe (10^6 cpm/ml), labeled by the random-priming method and washed at a maximum stringency. Blots were exposed to Kodak XAR 5 film and analyzed by densitometry, quantified on a Sun Sparc station using Bioimage software. (n=4, *=p<0.001). The collagen densitometry was normalized to GAPDH, a housekeeping gene, found not to change in response to GIP.
Total RNA was extracted from cells using Trizol (Gaithersburg, Md.). RNA was stored at −70° C. until use. RNA (20 μg) was electrophoresed on a 1.2% agarose-formaldehyde gel and transferred to a nylon filter. The blots were hybridized overnight at 65° C. with a ^32P-labeled probe (10^6 cpm/ml), labeled by the random-priming method and washed at maximum stringency. Hybridization was carried out in a solution of 7% SDS, 1% BSA, 1 mM EDTA, 250 mM Na2HPO4. The hybridized filters were washed with four 5 min washes of 2×SSC, 0.1% SDS at room temperature and twice in 0.1×SSC, 0.1% SDS for 30 min at 65° C. The blots were then exposed to Kodak XAR 5 film. The probes used were GAPDH (ATCC clone 57090), collagen 1 (i.m.a.g.e. clone# 308919) and a human GIPR fragment derived by PCR corresponding to transmembrane domains 2 to 7.

MG63 cells = test: Alkaline phosphatase activity in MG63 cells; assay type: cell-based, human
Protocol: Shown are the Means±SEM of triplicates of four different experiments. *=p<0.05; +=p<0.001.
Alkaline phosphatase (ALP) activity was measured using a commercially available assay kit (ALP […] Colorimetric test; Sigma Diagnostic, St. Louis, Mo.). This kit measures the conversion of p-nitrophenyl phosphate top-nitrophenol and inorganic phosphate. The change in absorbance at 405 nm is directly proportional to ALP activity. MG 63 cells were grown in 6 well plates incubated with the indicated agonist for the indicated times (medium was changed daily with readdition of fresh agonist) and samples collected. The kit reagents were added to the sample cuvette in the spectrophotometer at 30° C. and absorbances at 405 nm obtained at 1, 2 and 3 minutes. ALP activity (U/L) was determined using the change in absorbance with time and a millimolar absorptivity of p-nitrophenol at 405 nm of 18.45.

ovariectomized (OVX) rat = test: Bone mineral density by DXA in ovariectomized and non-OVX rats; assay type: in vivo, Sprague-Dawley rats; conditions: six weeks
Excerpt: 1. Control. Five non-OVX rats received daily injections at the same time everyday (09:00) of saline vehicle for six weeks into the tail vein.
3. OVX. Six OVX rats received saline vehicle injected daily for six weeks.

SaOS2 cells [4] = test: Cellular cAMP content by radioimmunoassay in SaOS2 cells; assay type: cell-based, human; conditions: GIP 1 μM
Protocol: as §1
cAMP measurements were done as described by Isales, et al., Endocrinology 129:489-95 (1991). Briefly, SaOS2 cells were grown to confluence in 60 mm^2 dishes and placed in KRB for 24 hours before use. In order to facilitate the measurement of cAMP production, 1 mM isomethylbutylxanthine (IBMX) was added prior to agonist addition for 10 minutes, followed by incubation with agonist for 10 minutes. Incubations were stopped by addition of 5% TCA, left on ice for 15 minutes and the cell extract collected. The extracts were neutralized by addition of a 1:1 solution ice cold Freon/Tri-N-octylamine (4:1,v/v). Each sample was vortexed for at least 30 sec to ensure adequate mixing. The mixture was then centrifaged at 2,500 rpm for 20 minutes ([…]). The top aqueous phase containing the cAMP was collected. The pH of the upper phase was checked to ensure adequate neutralization. The samples were stored at −70° C. until analysis. cAMP was measured using a commercially available radioimmunoassay (Biomedical Technologies, Stoughton, Mass.). […]

What does the source list for CC[C@H](C)[C@H](NC(=O)[C@H](CO)NC(=O)[C@H](Cc1ccc(O)cc1)NC(=O)[C@H](CC(=O)O)NC(=O)[C@H](CO)NC(=O)[C@@H](NC(=O)[C@H](Cc1ccccc1)NC(=O)[C@@H](NC(=O)CNC(=O)[C@H](CCC(=O)O)NC(=O)[C@H](C)NC(=O)[C@@H](N)Cc1ccc(O)cc1)[C@@H](C)O)[C@@H](C)CC)C(=O)N[C@@H](C)C(=O)N[C@@H](CCSC)C(=O)N[C@@H](CC(=O)O)C(=O)N[C@@H](CCCCN)C(=O)N[C@H](C(=O)N[C@@H](Cc1c[nH]cn1)C(=O)N[C@@H](CCC(N)=O)C(=O)N[C@@H](CCC(N)=O)C(=O)N[C@@H](CC(=O)O)C(=O)N[C@@H](Cc1ccccc1)C(=O)N[C@H](C(=O)N[C@@H](CC(N)=O)C(=O)N[C@@H](Cc1c[nH]c2ccccc12)C(=O)N[C@@H](CC(C)C)C(=O)N[C@@H](CC(C)C)C(=O)N[C@@H](C)C(=O)N[C@@H](CCC(N)=O)C(=O)N[C@@H](CCCCN)C(=O)NCC(=O)N[C@@H](CCCCN)C(=O)N[C@@H](CCCCN)C(=O)N[C@@H](CC(N)=O)C(=O)N[C@@H](CC(=O)O)C(=O)N[C@@H](Cc1c[nH]c2ccccc12)C(=O)N[C@@H](CCCCN)C(=O)N[C@@H](Cc1c[nH]cn1)C(=O)N[C@@H](CC(N)=O)C(=O)N[C@H](C(=O)N[C@H](C(=O)N[C@@H](CCC(N)=O)C(=O)O)[C@@H](C)O)[C@@H](C)CC)C(C)C)[C@@H](C)CC [GIP, Glucose-dependent Insulinotropic Peptide]?
Kd (receptors for GIP): 0.3 to 30 nM; PTH-induced bone resorption [1]: inhibits PTH-induced bone resorption; GIP concentration at which a significant increase in [Ca2+]i occurs (SaOS2 cells [2]): 0.1 nM; time course of GIP effect on collagen mRNA (SaOS2 cells [3]; 1 nM GIP, 0-12 hours): after six hours of stimulation; effect on collagen synthesis (SaOS2 cells [3]; higher doses (0.10, and 100 nM)): maximal effect; effect on collagen synthesis (SaOS2 cells [3]; lower GIP dose 0.1 nM): no effect; GIP concentration significantly increasing ALP activity (MG63 cells): 0.1 nM; onset of ALP activity increase (MG63 cells; 0.1 nM GIP, 1-6 days): as early as two days after stimulation; GIP effect on ALP versus positive control (MG63 cells; 0.1 nM GIP, control 1,25 vitamin D (10 ng/ml)+TGF-β (10 ng/ml)): larger than that observed with 1,25 vitamin D; ALP activity at higher doses versus 0.1 nM (MG63 cells; GIP 1-10 nM): did not increase ALP activity any further; bone density versus controls (ovariectomized (OVX) rat; OVX rats treated with GIP): not statistically different from controls; densitometry of the whole extremity (ovariectomized (OVX) rat; all experimental groups): no different among the various experimental groups; bone density versus untreated animals (ovariectomized (OVX) rat; non-OVX control rats, GIP 0.05 mg/kg daily): lower bone density than the untreated animals, this difference was not statistically significant; elevation in cellular cAMP content (SaOS2 cells [4]): 710 % above control
